According to patent US10669269B2, “Substituted N-(1H-indazol-4-yl)imidazo[1,2-a]pyridine-3-carboxamide compounds as type III receptor tyrosine kinase inhibitors” (ARRAY BIOPHARMA INC., priority 2010, dated 2020):
pIC50: −log10 of the molar value.

Columns and labels:
[1] = molecular target: T1, PDGFR beta (Homo sapiens, UniProt P09619); test: Phospho PDGFR LICOR Cell Assay (Example B); assay type: cell-based; conditions: averaged IC50; PDGFR beta phosphorylation in HS27 human fibroblast cell line, PDGF-BB stimulation 10 minutes, normalized to total ERK
T1 construct: endogenous in cells; host or cells: HS27 human fibroblast cell line
T1 sequence (P09619 33-1106): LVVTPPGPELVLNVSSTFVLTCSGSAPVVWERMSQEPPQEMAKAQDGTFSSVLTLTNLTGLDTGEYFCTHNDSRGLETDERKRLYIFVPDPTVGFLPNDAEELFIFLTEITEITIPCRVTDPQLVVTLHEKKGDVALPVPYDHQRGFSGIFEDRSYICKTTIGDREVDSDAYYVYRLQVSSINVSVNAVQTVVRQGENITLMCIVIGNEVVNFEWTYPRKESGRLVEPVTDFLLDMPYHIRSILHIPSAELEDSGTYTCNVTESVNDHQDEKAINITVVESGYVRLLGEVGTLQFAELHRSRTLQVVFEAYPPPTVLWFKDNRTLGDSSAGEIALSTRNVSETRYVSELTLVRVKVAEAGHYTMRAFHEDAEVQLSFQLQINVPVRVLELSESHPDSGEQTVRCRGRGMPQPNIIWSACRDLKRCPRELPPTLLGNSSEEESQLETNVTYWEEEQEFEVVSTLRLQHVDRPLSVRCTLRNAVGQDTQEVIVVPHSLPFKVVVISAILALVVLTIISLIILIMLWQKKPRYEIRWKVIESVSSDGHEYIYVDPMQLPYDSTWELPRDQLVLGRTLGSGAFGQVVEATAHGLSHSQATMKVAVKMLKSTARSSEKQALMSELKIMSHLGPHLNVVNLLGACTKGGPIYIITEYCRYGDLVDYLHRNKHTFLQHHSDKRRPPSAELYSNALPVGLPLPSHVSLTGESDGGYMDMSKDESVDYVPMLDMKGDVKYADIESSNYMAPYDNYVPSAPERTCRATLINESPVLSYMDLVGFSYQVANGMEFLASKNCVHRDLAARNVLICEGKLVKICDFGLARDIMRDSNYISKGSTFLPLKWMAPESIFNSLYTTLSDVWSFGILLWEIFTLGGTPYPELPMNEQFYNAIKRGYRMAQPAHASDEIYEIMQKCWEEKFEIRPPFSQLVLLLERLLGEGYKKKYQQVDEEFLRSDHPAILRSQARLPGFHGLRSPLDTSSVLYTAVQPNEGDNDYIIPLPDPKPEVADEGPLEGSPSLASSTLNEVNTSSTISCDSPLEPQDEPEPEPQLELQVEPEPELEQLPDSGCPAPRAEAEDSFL
Summary of the method: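 Read-out is in-cell phospho-PDGFRβ/total-ERK infrared immunofluorescence in HS27 fibroblasts. Cells got 1 h compound exposure before a 10 min PDGF-BB challenge. A 4-parameter logistic fit gave IC50 as the concentration yielding 50 percent of control.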

[2] = molecular target: T2, c-KIT (Homo sapiens, UniProt P10721); test: c-KIT Cell-Based Assay (Example D); conditions: averaged IC50; phospho-c-KIT in M-07e cells stimulated with 150 ng/ml recombinant human SCF; read-out: cKIT Cell ELISA IC50
T2 construct: M-07e cells (human acute megakaryoblastic leukemia cell line) were serum-starved for 4 hours; endogenous in cells; host or cells: M-07e cells (human acute megakaryoblastic leukemia cell line)
T2 sequence (P10721 26-976): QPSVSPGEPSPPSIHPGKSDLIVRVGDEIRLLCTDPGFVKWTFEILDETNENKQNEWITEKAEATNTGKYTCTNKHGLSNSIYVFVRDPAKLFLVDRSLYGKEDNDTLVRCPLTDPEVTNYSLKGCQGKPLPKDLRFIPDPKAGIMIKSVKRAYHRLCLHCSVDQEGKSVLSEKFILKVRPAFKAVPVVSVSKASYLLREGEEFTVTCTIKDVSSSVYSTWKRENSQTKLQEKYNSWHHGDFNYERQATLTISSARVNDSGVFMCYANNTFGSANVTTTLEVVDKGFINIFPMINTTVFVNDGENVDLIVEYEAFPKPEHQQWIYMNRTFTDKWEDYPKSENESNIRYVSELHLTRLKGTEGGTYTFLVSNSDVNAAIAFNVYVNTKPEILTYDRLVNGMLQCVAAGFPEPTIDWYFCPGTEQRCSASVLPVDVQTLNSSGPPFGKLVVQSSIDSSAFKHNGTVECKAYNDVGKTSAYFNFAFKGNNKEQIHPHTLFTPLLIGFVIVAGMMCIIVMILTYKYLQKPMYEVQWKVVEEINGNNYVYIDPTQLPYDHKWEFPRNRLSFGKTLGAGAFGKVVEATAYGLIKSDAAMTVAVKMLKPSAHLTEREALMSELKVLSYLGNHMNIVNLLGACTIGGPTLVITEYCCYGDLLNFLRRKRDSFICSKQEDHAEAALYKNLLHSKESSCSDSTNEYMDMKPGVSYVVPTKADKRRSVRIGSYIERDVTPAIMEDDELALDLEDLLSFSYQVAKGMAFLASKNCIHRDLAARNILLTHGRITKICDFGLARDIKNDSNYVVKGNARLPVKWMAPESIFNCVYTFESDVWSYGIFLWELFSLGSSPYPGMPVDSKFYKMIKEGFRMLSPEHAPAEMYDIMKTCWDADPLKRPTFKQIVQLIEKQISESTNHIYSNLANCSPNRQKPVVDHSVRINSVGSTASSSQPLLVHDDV
Summary of the method: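 Phospho-c-KIT ELISA readout, calibrated with purified phospho-SCF R, gave IC50 (4-parameter fit, 50% of control). Before lysis, M-07e cells were starved 4 h, exposed 1 h to a 9-point 3-fold series (highest usually 5,000 nM), and stimulated with 150 ng/ml SCF for 4 min.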

[3] = molecular target: T1, PDGFR beta; test: Phospho PDGFR Cell Assay, sandwich ELISA (Example A); assay type: cell-based; conditions: averaged IC50, PDGFR beta phosphorylation in HS27 human fibroblast cell line, PDGF-BB stimulation 5 minutes
Summary of the method: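 HS27 human fibroblasts were pretreated with compound for 1 h, stimulated with PDGF-BB for 5 min, then lysed. Phospho-PDGFR beta was measured by sandwich ELISA, and IC50 was taken as the concentration giving 50 percent of control from a 4-parameter logistic fit.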

[4] = molecular target: T3, cFMS (Homo sapiens, UniProt P07333); test: cFMS Cell-Based Assay (Example C); conditions: averaged IC50; phospho-cFMS in THP-1 cells stimulated with 250 ng/mL recombinant human MCSF; read-out: cFMS Cell ELISA IC50
T3 construct: THP-1 cells (human acute monocytic leukemia cell line) were serum-starved for 4 hours; endogenous in cells; host or cells: THP-1 cells (human acute monocytic leukemia cell line)
T3 sequence (P07333 20-972): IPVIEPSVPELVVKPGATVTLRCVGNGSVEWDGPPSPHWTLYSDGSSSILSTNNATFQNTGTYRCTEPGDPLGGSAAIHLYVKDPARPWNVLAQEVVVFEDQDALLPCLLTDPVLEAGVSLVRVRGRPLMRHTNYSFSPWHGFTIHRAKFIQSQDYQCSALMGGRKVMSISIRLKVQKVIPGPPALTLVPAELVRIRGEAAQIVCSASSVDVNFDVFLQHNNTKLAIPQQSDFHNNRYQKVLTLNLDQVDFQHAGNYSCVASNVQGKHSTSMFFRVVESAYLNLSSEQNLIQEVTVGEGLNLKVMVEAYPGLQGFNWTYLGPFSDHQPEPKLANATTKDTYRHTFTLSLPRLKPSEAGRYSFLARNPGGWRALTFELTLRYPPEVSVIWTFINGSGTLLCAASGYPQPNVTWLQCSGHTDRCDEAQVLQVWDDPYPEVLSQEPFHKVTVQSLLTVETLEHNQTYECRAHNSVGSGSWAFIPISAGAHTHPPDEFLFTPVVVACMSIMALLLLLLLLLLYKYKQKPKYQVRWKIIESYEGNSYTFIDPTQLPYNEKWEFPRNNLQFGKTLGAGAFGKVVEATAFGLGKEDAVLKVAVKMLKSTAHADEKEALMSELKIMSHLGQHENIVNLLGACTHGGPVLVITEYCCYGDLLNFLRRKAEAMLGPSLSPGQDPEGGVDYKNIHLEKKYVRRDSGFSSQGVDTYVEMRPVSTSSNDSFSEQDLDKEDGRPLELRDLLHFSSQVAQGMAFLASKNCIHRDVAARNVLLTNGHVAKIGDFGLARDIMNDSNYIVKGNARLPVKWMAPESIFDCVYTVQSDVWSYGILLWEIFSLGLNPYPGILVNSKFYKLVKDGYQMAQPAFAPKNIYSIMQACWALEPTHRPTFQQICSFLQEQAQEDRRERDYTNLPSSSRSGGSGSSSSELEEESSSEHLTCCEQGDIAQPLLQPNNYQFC
Summary of the method: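 Phosphotyrosine on cFMS, captured from lysates and quantified by ELISA, reads receptor activation after 1 min of 250 ng/mL human MCSF. Beforehand, THP-1 cells were serum-starved for 4 h and exposed to compound for 1 h (9 points, 3-fold, typically up to 5,000 nM). IC50 from a 4-parameter logistic fit as 50 percent of control.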

## Cc1nn(Cc2cccc(C3CC3)n2)c2cccc(NC(=O)c3cnc4cc(OCCN5CCN(C)CC5)ccn34)c12 [Example 47, N-(1-((6-cyclopropylpyridin-2-yl)methyl)-3-methyl-1H-indazol-4-yl)-7-(2-(4-methylpiperazin-1-yl)ethoxy)imidazo[1,2-a]pyridine-3-carboxamide]
[1]
  pIC50: 8.19
[2]
  pIC50: 7.31
[3]
  pIC50: 7.13
[4]
  pIC50: 7.80

## Cc1nn(Cc2cccc(C(C)C)n2)c2cccc(NC(=O)c3cnc4cc(OCCN5CCN(C)[C@@H](C)C5)ccn34)c12 [Example 25, (S)-7-(2-(3,4-dimethylpiperazin-1-yl)ethoxy)-N-(1-((6-isopropylpyridin-2-yl)methyl)-3-methyl-1H-indazol-4-yl)imidazo[1,2-a]pyridine-3-carboxamide]
[1]
  pIC50: 7.74
[2]
  pIC50: 7.29
[3]
  pIC50: 7.38
[4]
  pIC50: 7.62
